Assay type in all cases: functional
The species named for assay [1] is Mus musculus. Put plainly: Effect on the proliferation of murine spleen cells evaluated in terms of [3H]TdR uptake into the cells at a concentration of 1 ng/mL.
The species named for assay [2] is Mus musculus. Put plainly: Effect on the proliferation of murine spleen cells evaluated in terms of [3H]TdR uptake into the cells at a concentration of 100 ng/mL.
The species entered for assay [3] is Mus musculus. Put plainly: Effect on the proliferation of murine spleen cells evaluated in terms of [3H]TdR uptake into the cells at a concentration of 10 ng/mL.

Molecules are shown by their SMILES.

In the case of `CCCCCCCCCCCCCCCCCCCCCC[C@@H](O)C(=O)N[C@@H](CO[C@H]1O[C@@H](CO)[C@H](O)[C@H](O)[C@@H]1O)[C@@H](CCCCCCCCCCCCCCC)O[C@H]1O[C@@H](CO)[C@H](O)[C@H](O)[C@@H]1O`, the 3H-TdR incorpolation in assay [1] stood at 16138 c.p.m; in assay [2], 44867 c.p.m; in assay [3], 34892 c.p.m.
On the same counts, the results for `CCCCCCCCCCCCCCCCCCCCCC[C@@H](O)C(=O)N[C@@H](CO[C@H]1O[C@@H](CO)[C@H](O)[C@H](O)[C@@H]1O)[C@@H](CCCCCCCCCCCCCCC)O[C@@H]1O[C@@H](CO)[C@H](O)[C@H](O)[C@@H]1O` are 7892 c.p.m, 45036 c.p.m and 13195 c.p.m.
On to `CCCCCCCCCCCCCCC[C@@H](O)[C@H](CO[C@H]1O[C@@H](CO)[C@H](O)[C@H](O)[C@@H]1O)NC(=O)CCCCCCCCCCCCC`, for which the 3H-TdR incorpolation in assay [1] stood at 9018 c.p.m; in assay [2], 44395 c.p.m; in assay [3], 44395 c.p.m.
`CCCCCCCCCCCCCCCCCCCCCC[C@@H](O)C(=O)N[C@@H](CO[C@H]1O[C@@H](CO)[C@H](O)[C@H](O)[C@@H]1O)[C@H](O)CCCCCCCCCCCCCCC`: the results for the 3H-TdR incorpolation in assay [1], in assay [2] and in assay [3] were 9454 c.p.m, 45966 c.p.m and 20283 c.p.m, respectively.
The like results for `CCCCCCCCCCCCCCC[C@@H](O[C@H]1O[C@@H](CO)[C@H](O)[C@H](O)[C@@H]1O)[C@H](CO)NC(=O)CCCCCCCCCCCCC` were, in that order, 7722 c.p.m, 6141 c.p.m and 7412 c.p.m.

(Values after ChEMBL document CHEMBL1132057, “Effects of 3alpha- and 3beta-galactosylated alpha-galactosylceramides on the immune system” (1999).)
